Experimental data: ChEMBL document CHEMBL1140154, “1H-cyclopentapyrimidine-2,4(1H,3H)-dione-related ionotropic glutamate receptors ligands. structure-activity relationships and identification of potent and Selective iGluR5 modulators” (J Med Chem, 2008)

What was measured:
Glutamate receptor 3 [1] = target: T1, Glutamate receptor 3 (Rattus norvegicus, UniProt P19492); assay: biochemical
[2] = target: Glutamate receptor ionotropic, kainate 1 (Rattus norvegicus, UniProt P22756); assay: biochemical
Sequence of Glutamate receptor ionotropic, kainate 1 (Rattus norvegicus, UniProt P22756) (P22756 whole entry): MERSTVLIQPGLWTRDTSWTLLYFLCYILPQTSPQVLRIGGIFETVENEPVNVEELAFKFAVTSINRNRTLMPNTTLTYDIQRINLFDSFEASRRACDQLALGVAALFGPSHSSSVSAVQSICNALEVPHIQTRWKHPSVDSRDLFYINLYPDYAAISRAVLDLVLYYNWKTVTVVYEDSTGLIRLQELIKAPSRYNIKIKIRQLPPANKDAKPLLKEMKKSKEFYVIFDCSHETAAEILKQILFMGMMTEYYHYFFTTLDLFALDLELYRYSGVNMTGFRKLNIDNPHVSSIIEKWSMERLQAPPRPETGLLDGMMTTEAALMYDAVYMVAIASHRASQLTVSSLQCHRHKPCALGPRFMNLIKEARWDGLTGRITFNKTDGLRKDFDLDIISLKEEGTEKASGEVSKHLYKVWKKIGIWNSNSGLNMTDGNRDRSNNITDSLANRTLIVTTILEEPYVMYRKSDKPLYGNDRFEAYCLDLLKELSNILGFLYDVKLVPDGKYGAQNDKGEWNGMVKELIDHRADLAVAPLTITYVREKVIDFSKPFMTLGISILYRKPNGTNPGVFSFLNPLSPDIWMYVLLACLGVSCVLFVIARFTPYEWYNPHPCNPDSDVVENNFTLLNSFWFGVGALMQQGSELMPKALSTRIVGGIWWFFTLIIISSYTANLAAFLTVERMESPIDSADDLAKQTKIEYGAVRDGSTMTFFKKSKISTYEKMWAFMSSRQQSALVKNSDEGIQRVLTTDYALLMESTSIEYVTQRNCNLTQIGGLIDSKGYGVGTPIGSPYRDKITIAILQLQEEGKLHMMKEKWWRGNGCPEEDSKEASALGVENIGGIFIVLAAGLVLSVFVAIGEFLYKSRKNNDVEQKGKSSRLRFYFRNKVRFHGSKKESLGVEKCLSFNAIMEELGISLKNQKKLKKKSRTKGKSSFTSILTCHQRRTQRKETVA

Glutamate receptor 1 [3] = target: T2, Glutamate receptor 1 (Rattus norvegicus, UniProt P19490); assay: biochemical
T2 sequence (P19490 whole entry): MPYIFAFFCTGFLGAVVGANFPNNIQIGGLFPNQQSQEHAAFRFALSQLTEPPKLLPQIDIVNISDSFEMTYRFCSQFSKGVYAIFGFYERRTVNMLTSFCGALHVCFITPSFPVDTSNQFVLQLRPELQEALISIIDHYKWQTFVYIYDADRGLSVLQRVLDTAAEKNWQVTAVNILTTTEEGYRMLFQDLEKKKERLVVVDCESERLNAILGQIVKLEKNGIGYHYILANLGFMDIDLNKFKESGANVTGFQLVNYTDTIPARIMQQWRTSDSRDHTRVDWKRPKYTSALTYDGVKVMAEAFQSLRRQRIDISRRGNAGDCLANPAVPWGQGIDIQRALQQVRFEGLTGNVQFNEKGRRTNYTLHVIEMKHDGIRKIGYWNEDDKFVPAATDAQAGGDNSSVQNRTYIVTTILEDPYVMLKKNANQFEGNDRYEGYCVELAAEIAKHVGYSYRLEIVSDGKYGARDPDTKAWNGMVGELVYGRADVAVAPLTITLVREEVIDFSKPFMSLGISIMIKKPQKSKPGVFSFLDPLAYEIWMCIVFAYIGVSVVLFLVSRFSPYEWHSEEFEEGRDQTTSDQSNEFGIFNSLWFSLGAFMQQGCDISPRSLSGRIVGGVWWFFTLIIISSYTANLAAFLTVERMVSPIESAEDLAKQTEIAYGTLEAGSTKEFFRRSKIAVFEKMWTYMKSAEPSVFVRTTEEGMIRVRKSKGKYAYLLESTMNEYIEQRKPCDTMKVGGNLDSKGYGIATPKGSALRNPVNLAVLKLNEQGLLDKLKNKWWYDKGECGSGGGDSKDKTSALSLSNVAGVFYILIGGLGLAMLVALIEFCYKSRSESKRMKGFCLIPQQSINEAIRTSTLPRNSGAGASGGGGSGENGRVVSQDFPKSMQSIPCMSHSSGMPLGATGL

Glutamate receptor 4 [4] = target: T3, Glutamate receptor 4 (Rattus norvegicus, UniProt P19493); assay: biochemical
T3 sequence (P19493 whole entry): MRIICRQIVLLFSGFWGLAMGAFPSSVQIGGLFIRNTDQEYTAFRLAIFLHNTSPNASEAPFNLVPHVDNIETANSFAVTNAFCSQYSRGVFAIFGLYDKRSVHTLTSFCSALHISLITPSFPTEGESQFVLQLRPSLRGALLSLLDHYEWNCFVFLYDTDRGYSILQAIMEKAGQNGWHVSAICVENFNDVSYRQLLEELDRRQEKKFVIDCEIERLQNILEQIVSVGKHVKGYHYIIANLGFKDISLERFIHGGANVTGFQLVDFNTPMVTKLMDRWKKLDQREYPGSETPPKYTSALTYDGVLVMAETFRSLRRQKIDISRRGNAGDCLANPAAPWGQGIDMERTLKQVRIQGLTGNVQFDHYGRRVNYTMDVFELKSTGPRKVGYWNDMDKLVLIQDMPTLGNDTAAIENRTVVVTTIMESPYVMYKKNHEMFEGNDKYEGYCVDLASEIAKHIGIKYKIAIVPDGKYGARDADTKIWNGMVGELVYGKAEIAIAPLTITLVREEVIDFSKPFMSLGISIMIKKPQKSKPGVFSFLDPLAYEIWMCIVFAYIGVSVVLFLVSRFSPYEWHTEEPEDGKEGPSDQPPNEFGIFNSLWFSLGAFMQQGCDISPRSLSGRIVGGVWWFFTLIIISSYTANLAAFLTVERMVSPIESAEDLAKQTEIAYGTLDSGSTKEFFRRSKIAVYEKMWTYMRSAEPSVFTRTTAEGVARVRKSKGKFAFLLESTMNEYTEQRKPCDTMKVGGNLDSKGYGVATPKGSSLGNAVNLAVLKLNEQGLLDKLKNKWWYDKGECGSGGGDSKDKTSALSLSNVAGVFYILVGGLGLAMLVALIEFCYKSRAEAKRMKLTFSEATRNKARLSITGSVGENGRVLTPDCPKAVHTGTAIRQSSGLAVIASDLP

[5] = target: Glutamate receptor ionotropic, kainate 2 (Rattus norvegicus, UniProt P42260); assay: Displacement of [3H]kainic acid from rat recombinant iGluR6(V,C,R) receptor expressed in Sf9 cells
Sequence of Glutamate receptor ionotropic, kainate 2 (P42260 whole entry): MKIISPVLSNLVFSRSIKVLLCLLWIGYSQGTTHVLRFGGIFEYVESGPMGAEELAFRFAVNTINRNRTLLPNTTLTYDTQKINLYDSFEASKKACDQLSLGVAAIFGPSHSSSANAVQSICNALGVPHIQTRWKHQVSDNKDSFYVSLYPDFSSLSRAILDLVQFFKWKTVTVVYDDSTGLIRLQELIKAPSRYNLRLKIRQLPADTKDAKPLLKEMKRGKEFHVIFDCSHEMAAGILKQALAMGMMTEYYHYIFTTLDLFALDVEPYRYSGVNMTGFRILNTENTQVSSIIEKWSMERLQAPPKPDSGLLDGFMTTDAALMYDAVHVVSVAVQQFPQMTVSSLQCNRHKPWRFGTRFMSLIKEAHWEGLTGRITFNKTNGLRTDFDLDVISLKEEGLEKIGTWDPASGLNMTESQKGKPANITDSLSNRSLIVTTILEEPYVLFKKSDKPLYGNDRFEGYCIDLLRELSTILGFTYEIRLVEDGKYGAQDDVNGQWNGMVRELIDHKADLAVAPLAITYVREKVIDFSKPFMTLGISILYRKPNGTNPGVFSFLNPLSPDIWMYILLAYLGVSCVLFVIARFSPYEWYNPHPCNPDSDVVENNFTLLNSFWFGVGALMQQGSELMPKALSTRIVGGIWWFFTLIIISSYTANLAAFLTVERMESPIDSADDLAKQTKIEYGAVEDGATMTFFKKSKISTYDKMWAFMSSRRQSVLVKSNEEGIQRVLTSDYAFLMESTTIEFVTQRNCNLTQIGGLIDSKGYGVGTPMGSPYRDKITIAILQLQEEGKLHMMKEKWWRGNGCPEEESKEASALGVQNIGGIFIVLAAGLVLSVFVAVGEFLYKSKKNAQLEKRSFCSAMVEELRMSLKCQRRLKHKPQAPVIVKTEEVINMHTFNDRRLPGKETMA

Glutamate receptor 1 [6] = target: T2, Glutamate receptor 1; assay: Agonist activity at cyclothiazide-desensitized rat recombinant flop iGluR1 expressed in Xenopus laevis oocytes by two electrode voltage-clamp electrophysiology method; assay type: functional, cell-based, Oocyte
Glutamate receptor 4 [7] = target: T3, Glutamate receptor 4; assay: Agonist activity at cyclothiazide-desensitized rat recombinant flip iGluR4 expressed in Xenopus laevis oocytes by two electrode voltage-clamp electrophysiology method; assay type: functional, cell-based, Oocyte
Glutamate receptor 3 [8] = target: T1, Glutamate receptor 3; assay: Agonist activity at cyclothiazide-desensitized rat recombinant flip iGluR3 expressed in Xenopus laevis oocytes by two electrode voltage-clamp electrophysiology method; assay type: functional, cell-based, Oocyte
Glutamate receptor 1 [9] = target: T2, Glutamate receptor 1; assay: Agonist activity at cyclothiazide-desensitized rat recombinant flip iGluR1 expressed in Xenopus laevis oocytes by two electrode voltage-clamp electrophysiology method; assay type: functional, cell-based, Oocyte
[10] = target: Glutamate receptor ionotropic, kainate 1 (Homo sapiens, UniProt P39086); assay: Antagonist activity at human iGluR5(Q)1b expressed in CHO-K1 cells by whole cell patch-clamp method; assay type: functional, cell-based
Glutamate receptor 1 [11] = target: T4, Glutamate receptor 1 (Homo sapiens, UniProt P42261); assay: Agonist activity at cyclothiazide-desensitized human flip iGluR1 expressed in CHO-K1 cells by whole cell patch-clamp method; assay type: functional, cell-based
Glutamate receptor 2 [12] = target: T5, Glutamate receptor 2 (Rattus norvegicus, UniProt P19491); assay: biochemical
Glutamate receptor 2 [13] = target: T5, Glutamate receptor 2
Glutamate receptor 1 [14] = target: T4, Glutamate receptor 1; assay: Antagonist activity at human flip iGluR1 expressed in CHO-K1 cells by whole cell patch-clamp method; assay type: functional, cell-based

T1 sequence (P19492 whole entry): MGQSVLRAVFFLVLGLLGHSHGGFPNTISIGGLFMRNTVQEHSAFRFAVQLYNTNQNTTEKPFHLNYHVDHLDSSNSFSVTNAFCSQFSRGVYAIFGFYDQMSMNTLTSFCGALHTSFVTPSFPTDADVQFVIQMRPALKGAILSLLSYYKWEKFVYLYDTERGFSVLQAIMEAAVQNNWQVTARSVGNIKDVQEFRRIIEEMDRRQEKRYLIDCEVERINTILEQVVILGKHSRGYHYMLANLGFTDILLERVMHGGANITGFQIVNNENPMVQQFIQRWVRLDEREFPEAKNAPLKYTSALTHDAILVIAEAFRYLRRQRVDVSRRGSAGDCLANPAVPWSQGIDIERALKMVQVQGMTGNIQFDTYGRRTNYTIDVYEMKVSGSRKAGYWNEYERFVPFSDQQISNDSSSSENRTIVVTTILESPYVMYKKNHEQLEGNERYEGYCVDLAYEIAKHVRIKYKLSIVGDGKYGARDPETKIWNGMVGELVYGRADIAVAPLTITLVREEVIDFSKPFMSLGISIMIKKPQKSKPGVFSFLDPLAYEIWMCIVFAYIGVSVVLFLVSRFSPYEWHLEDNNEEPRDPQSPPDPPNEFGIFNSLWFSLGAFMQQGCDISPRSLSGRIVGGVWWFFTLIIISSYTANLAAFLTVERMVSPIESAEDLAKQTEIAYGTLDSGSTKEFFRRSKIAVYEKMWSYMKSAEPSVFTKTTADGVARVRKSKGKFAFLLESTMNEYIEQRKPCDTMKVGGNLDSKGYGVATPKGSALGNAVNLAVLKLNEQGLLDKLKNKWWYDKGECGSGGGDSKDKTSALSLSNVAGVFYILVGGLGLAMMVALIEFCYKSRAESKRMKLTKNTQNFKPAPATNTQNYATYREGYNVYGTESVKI

Structure (SMILES)	Ki (Glutamate receptor 3 [1])	Ki [2]	Ki (Glutamate receptor 1 [3])	Ki (Glutamate receptor 4 [4])	Ki [5]	further results
N[C@@H](Cn1cc(Cl)c(=O)[nH]c1=O)C(=O)O	0.451 µM	0.047 µM	0.037 µM	0.561 µM	> 100 µM	–
N[C@@H](Cn1cc(I)c(=O)[nH]c1=O)C(=O)O	0.976 µM	0.0024 µM	0.083 µM	0.738 µM	> 100 µM	EC50 (Glutamate receptor 1 [6]): 33.6 µM
N[C@@H](Cn1cc(F)c(=O)[nH]c1=O)C(=O)O	0.07 µM	1.38 µM	0.0029 µM	0.123 µM	> 100 µM	EC50 (Glutamate receptor 4 [7]): 11.9 µM; EC50 (Glutamate receptor 3 [8]): 20.9 µM; EC50 (Glutamate receptor 1 [9]): 0.38 µM
N[C@@H](Cn1cc(Br)c(=O)[nH]c1=O)C(=O)O	–	–	–	–	–	EC50 (Glutamate receptor 1 [6]): 2.8 µM
N[C@@H](Cn1c2c(c(=O)[nH]c1=O)CCC2)C(=O)O	1.89 µM	0.044 µM	0.109 µM	2.09 µM	> 1000 µM	EC50 (Glutamate receptor 1 [6]): 24.9 µM
NC(Cn1ccc(=O)[nH]c1=O)C(=O)O (stereo not given)	–	> 100 µM	0.41 µM	14.2 µM	> 1000 µM	–
N[C@@H](Cn1c2c(c(=O)[nH]c1=O)CSC2)C(=O)O	0.311 µM	–	0.058 µM	0.288 µM	> 1000 µM	EC50 (Glutamate receptor 4 [7]): 24.2 µM; IC50 [10]: 0.0038 µM; IC50 [2]: 0.0052 µM; EC50 (Glutamate receptor 1 [11]): 18.5 µM; EC50 (Glutamate receptor 3 [8]): 33.9 µM; EC50 (Glutamate receptor 1 [9]): 11.8 µM
N[C@@H](CCn1c2c(c(=O)n(CC[C@H](N)C(=O)O)c1=O)CCC2)C(=O)O	> 100 µM	> 1000 µM	> 100 µM	> 100 µM	> 100 µM	Ki (Glutamate receptor 2 [12]): > 100 µM
CC1(C)Cc2c(n(C[C@H](N)C(=O)O)c(=O)[nH]c2=O)C1	1.51 µM	0.976 µM	0.102 µM	1.59 µM	> 1000 µM	Ki (Glutamate receptor 2 [12]): 0.126 µM
N[C@@H](Cn1c(=O)[nH]c(=O)c2sccc21)C(=O)O	0.936 µM	–	0.05 µM	0.804 µM	> 1000 µM	Ki (Glutamate receptor 2 [12]): 0.112 µM; EC50 (Glutamate receptor 4 [7]): 90 µM; EC50 (Glutamate receptor 2 [13]): 11.8 µM; EC50 (Glutamate receptor 1 [11]): 4.1 µM; EC50 (Glutamate receptor 3 [8]): 120 µM; EC50 (Glutamate receptor 1 [9]): 7.2 µM; IC50 (Glutamate receptor 1 [14]): 0.374 µM
N[C@H](Cn1c2c(c(=O)[nH]c1=O)CCC2)C(=O)O	–	–	10.4 µM	> 100 µM	–	–
N[C@@H](CCn1c2c(c(=O)[nH]c1=O)CCC2)C(=O)O	> 100 µM	> 1000 µM	> 100 µM	> 100 µM	> 1000 µM	Ki (Glutamate receptor 2 [12]): > 100 µM
N[C@@H](Cn1c(=O)[nH]c(=O)c2cocc21)C(=O)O	> 100 µM	2.98 µM	35.2 µM	> 100 µM	> 1000 µM	–
N[C@@H](Cn1c(=O)[nH]c(=O)c2ccccc21)C(=O)O	6.91 µM	0.49 µM	2.39 µM	15.7 µM	> 1000 µM	Ki (Glutamate receptor 2 [12]): 3.39 µM
NC(Cn1cc(Br)c(=O)[nH]c1=O)C(=O)O (racemic)	0.434 µM	0.0148 µM	0.035 µM	0.656 µM	> 100 µM	–
Cc1onc(O)c1CC(N)C(=O)O (racemic) [(R,S)-AMPA]	–	–	–	–	> 1000 µM	–
N[C@@H](Cn1ccc(=O)[nH]c1=O)C(=O)O [(S)-WILLARDIINE]	–	–	–	–	–	EC50 (Glutamate receptor 1 [6]): 11.5 µM
C=C(C)[C@H]1CN[C@H](C(=O)O)[C@H]1CC(=O)O [KAINIC ACID]	–	–	–	3.57 µM	–	–
